Where “and” joins values, the source holds several entries; their conditions need not be identical. Equal entries are not always repeated. Structures can show the parent of a compound that is named as a salt. Where two headings read alike, the source gives them in different places.
Legend:
DOR/MOR heteromers = DOR/MOR heteromers (Mus musculus, UniProt P32300+P42866); format: cell-based, murine
MOR homomers = MOR homomers (Mus musculus, UniProt P42866); format: cell-based, murine; conditions: DOR/MOR co-expressing cells
DOR homomers = DOR homomers (Mus musculus, UniProt P32300); format: cell-based, murine
DOR [1] = molecular target: T1, DOR (Mus musculus, UniProt P32300)
MOR [2] = molecular target: T2, MOR (Mus musculus, UniProt P42866)
DOR/MOR [3] = molecular target: T3, DOR/MOR (Mus musculus, UniProt P32300+P42866)
MOR [4] = molecular target: T2, MOR; remark: listed apart in the source
DOR [5] = molecular target: T1, DOR; remark: listed apart in the source
DOR [6] = conditions: cited from earlier work
MOR [7] = conditions: cited from earlier work
DOR [8] = molecular target: T1, DOR; experiment: cell-based; conditions: Log IC50
DOR/MOR [9] = molecular target: T3, DOR/MOR; experiment: cell-based

T3 sequence (P42866 whole entry): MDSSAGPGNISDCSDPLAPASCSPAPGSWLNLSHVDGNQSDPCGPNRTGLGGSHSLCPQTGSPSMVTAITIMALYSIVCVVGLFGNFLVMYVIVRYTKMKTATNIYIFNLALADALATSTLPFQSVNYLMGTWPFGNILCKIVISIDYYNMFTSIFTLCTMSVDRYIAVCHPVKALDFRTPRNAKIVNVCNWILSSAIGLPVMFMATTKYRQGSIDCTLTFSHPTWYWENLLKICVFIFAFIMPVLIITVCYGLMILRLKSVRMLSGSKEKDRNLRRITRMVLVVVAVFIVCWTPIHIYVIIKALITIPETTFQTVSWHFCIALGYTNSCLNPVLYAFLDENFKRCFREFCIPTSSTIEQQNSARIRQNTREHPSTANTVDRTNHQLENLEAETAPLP
T3 sequence (P32300 whole entry): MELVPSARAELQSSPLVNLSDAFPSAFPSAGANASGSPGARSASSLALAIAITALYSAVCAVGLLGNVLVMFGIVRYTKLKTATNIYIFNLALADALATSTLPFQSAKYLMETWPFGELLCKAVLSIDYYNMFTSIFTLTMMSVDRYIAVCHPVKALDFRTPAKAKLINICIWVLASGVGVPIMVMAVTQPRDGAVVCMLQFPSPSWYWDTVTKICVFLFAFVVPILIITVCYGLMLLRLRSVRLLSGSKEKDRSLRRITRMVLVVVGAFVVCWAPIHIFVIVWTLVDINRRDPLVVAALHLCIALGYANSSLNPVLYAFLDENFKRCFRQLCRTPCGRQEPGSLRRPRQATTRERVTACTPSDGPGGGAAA
T2 sequence (P42866 whole entry): as the sequence (P42866 whole entry) above
Chain of DOR/MOR heteromers (P42866 whole entry): as above
Chain of DOR/MOR heteromers (P32300 whole entry): as the sequence (P32300 whole entry) above
T1 sequence (P32300 whole entry): as above
Chain of MOR homomers (P42866 whole entry): as the sequence (P42866 whole entry) above
Chain of DOR homomers (P32300 whole entry): as the sequence (P32300 whole entry) above

For `C[C@@H](NC(=O)[C@@H](N)Cc1ccc(O)cc1)C(=O)NCC(=O)N(C)[C@@H](Cc1ccccc1)C(=O)NCCO` [DAMGO, [D-Ala2, NMe-Phe4, Gly-ol5]-enkephalin], the “agonist-induced endocytosis of DOR/MOR heteromers” value (DOR/MOR heteromers) was “promoted endocytosis”, the “agonist-induced endocytosis of MOR homomers” value (MOR homomers; 1 μM, 30 minutes) was “promoted endocytosis” and the “agonist-induced endocytosis of DOR homomers” value (DOR homomers) was “but not DOR homomers”. The “Emax (RFU)” value (DOR [1]) was 582 ± 55 RFU, the “Emax (RFU)” value (MOR [2]) was 735 ± 51 RFU and the “Emax (RFU)” value (DOR/MOR [3]) was 956 ± 56 RFU. For the same molecule, the “agonist-induced endocytosis of MOR” value (MOR [4]; 1 μM agonist, 30 minutes, cells expressing MOR alone) was “endocytosed” and the “agonist-induced endocytosis of DOR” value (DOR [5]) was “not endocytosed”.

In the case of `Oc1ccc2c3c1O[C@H]1c4[nH]c5ccccc5c4C[C@@]4(O)[C@@H](C2)N(CC2CC2)CC[C@]314` [NTI, Naltrindole hydrochloride], the “inhibition of methadone- and DAMGO-induced endocytosis of DOR/MOR heteromers” value (DOR/MOR heteromers) is reported as “significantly and selectively inhibited”, the “% of maximal inhibition” value (DOR [1]) is reported as 81 ± 3% and 94 ± 1% and the “% of maximal inhibition” value (DOR/MOR [3]) is reported as 79 ± 6% and 48 ± 6%. For the same molecule, the “Log IC50” value (DOR/MOR [3]) was −6.9 ± 0.1, the Ki (DOR [6]; read-out: Ki for DOR, reference not given) was 0.02 nM and the Ki (MOR [7]; read-out: Ki for MOR, reference not given) was 64 nM. The IC50 (DOR [8]) was 63.1 nM and 251 nM and the IC50 (DOR/MOR [9]) was 126 nM.

In the case of `Oc1ccc2c3c1O[C@H]1c4oc5ccccc5c4C[C@@]4(O)[C@@H](C2)N(CC2CC2)CC[C@]314` [NTB, naltriben mesylate], the “inhibition of methadone- and DAMGO-induced endocytosis of DOR/MOR heteromers” value (DOR/MOR heteromers) is reported as “significantly inhibited”, the “inhibition of methadone- and DAMGO-induced endocytosis of MOR homomers” value (MOR homomers; NTB 0.05 μM to 1 μM, 20 minutes) is reported as “inhibited by the highest concentration” and the “% of maximal inhibition” value (DOR [1]) is reported as 87 ± 2% and 87 ± 12%. For the same molecule, the “block of DPDPE signaling” value (DOR [1]) was “effectively blocked signaling”, the “inhibition of DAMGO-mediated signaling” value (MOR [2]) was 52 ± 4% and the “inhibition of methadone-mediated signaling” value (MOR [2]) was 63 ± 10%. For the same molecule, the “% of maximal inhibition” value (DOR/MOR [3]) was 34 ±7 ^### % and 31 ± 5 %, the “block of DPDPE signaling” value (DOR/MOR [3]) was “effectively blocked signaling” and the “inhibition of MOR endocytosis in cells expressing only MOR” value (MOR [4]) was “did not block endocytosis”. For the same molecule, the “inhibition of DOR endocytosis in response to DPDPE” value (DOR [5]) was “did block endocytosis”, the “fold higher affinity for DOR over MOR” value (DOR [6]; DOR over MOR, ref Raynor et al., 1994, Kim et al., 2001) was > 100 fold and the Ki (DOR [6]; read-out: Ki for DOR, ref Raynor et al., 1994, Kim et al., 2001) was 0.013 nM. The Ki (MOR [7]; read-out: Ki for MOR, ref Raynor et al., 1994, Kim et al., 2001) was 12 nM, the IC50 (DOR [8]) was 158 nM and 126 nM and the IC50 (DOR/MOR [9]) was 251 nM.

From PMC3097170 (The Journal of pharmacology and experimental therapeutics, 2011)
